Values of other authors, collected in patent US20020137787A1, “Prevention or treatment of complications related to non-insulin dependent diabetes mellitus or type 2 diabetes mellitus” (priority 2001, published 2002).
Read-outs that look alike come from different tables or passages of the source.

How the values were obtained:
[1] = patients taking Clozapine

SMILES	effect on body weight [1]	effect on body weight (overweight depressed patients)	effects on blood glucose and lipid profiles (reported)
CN1CCN(C2=Nc3cc(Cl)ccc3Nc3ccccc32)CC1 [Clozapine]	increased weight		
CNCCC(Oc1ccc(C(F)(F)F)cc1)c1ccccc1 (stereo not drawn) [Fluoxetine]		weight loss	positive effects
